Read-outs that look alike come from different tables or passages of the source.
Key:
ROCK1 = ROCK1 (Homo sapiens (Human), UniProt Q13464); experiment: Z'Lyte assay, ROCK1 inhibition at a single concentration; assay type: biochemical
ROCK2 = ROCK2 (Homo sapiens (Human), UniProt O75116); experiment: Z'Lyte assay, ROCK2 inhibition at a single concentration; assay type: biochemical
[1] = test system: cofilin phosphorylation, HeLa cells; experiment: Cofilin phosphorylation by Western Blot (anti-phospho-Ser3-cofilin) in HeLa cells; assay type: cell-based; details: for inhibition at 25 µM: Homo sapiens
[2] = test system: cofilin phosphorylation, MPNST88-14 cells; experiment: Cofilin phosphorylation by Western Blot in MPNST88-14 cells; assay type: cell-based
LIMK1 = LIMK1 (Homo sapiens (Human), UniProt P53667); experiment: Lanthascreen Eu binding assay (TR-FRET), inhibition of LIMK1
Chain of LIMK1 (P53667 whole entry): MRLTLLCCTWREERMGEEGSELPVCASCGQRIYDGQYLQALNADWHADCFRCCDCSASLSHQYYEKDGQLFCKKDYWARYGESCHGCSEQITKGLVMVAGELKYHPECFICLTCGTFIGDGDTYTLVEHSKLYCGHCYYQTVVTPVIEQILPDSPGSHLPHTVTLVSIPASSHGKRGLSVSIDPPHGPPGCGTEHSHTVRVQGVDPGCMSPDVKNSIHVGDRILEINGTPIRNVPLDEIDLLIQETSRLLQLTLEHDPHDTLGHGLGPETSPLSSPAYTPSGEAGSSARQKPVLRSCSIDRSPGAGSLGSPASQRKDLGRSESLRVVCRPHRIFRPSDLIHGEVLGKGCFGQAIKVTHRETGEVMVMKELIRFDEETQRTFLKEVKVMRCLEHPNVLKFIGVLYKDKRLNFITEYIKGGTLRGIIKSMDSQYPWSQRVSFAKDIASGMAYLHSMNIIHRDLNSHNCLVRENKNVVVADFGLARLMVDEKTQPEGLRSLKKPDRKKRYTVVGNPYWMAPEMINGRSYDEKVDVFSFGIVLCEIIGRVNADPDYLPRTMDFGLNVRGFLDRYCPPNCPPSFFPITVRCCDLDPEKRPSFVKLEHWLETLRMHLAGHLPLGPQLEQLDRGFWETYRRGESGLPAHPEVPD

LIMK2 = LIMK2 (Homo sapiens (Human), UniProt P53671); experiment: Lanthascreen Eu binding assay (TR-FRET), inhibition of LIMK2
Chain of LIMK2 (P53671 whole entry): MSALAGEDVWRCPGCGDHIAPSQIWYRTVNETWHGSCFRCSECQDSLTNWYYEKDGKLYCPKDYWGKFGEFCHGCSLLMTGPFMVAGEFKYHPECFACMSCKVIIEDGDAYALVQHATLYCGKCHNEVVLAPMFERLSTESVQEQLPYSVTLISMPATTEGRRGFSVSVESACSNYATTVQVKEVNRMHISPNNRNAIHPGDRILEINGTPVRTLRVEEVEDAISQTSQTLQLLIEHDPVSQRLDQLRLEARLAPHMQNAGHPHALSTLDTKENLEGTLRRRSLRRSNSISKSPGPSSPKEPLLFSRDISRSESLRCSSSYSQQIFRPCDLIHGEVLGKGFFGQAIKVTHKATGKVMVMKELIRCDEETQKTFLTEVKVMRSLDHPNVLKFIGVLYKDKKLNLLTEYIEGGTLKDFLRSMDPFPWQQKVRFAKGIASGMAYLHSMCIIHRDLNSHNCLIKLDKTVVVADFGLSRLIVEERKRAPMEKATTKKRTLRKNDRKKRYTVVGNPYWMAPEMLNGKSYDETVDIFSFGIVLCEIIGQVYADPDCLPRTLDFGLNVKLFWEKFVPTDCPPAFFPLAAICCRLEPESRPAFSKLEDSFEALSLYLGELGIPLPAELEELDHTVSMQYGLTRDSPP

[3] = read-out: % inhibition (ROCK1) 1 uM
[4] = read-out: % inhibition (ROCK2) 1 uM
[5] = HeLa, 2 h, read-out: % inhibition Cofilin phosphorylation HeLa cells treated 2 h with 25 uM of inhibitor
[6] = HeLa, 2 h, read-out: % inhibition of cofilin phosphorylation in HeLa cells (treatment 2 h, at 25 μM)
[7] = 2 h, read-out: % inhibition Cofilin phosphorylation MPNST88-14 cells treated 2 h with 25 uM of inhibitor
[8] = HeLa, 2 h, read-out: % inhibition of cofilin phosphorylation in HeLa cells (treatment 2 h, at 25 μM), Table 2, normalized to the control condition DMSO
[9] = read-out: % inhibition Cofilin phosphorylation HeLa cells treated 2 h with 25 uM of inhibitor, HeLa cells, 2 h, 25 uM
[10] = read-out: % inhibition Cofilin phosphorylation MPNST88-14 cells treated 2 h with 25 uM of inhibitor, MPNST88-14 cells, 25 uM
[11] = read-out: % inhibition (ROCK1) 1 uM, 1 uM
[12] = read-out: % inhibition (ROCK2) 1 uM, 1 uM

Chain of ROCK1 (Q13464 whole entry): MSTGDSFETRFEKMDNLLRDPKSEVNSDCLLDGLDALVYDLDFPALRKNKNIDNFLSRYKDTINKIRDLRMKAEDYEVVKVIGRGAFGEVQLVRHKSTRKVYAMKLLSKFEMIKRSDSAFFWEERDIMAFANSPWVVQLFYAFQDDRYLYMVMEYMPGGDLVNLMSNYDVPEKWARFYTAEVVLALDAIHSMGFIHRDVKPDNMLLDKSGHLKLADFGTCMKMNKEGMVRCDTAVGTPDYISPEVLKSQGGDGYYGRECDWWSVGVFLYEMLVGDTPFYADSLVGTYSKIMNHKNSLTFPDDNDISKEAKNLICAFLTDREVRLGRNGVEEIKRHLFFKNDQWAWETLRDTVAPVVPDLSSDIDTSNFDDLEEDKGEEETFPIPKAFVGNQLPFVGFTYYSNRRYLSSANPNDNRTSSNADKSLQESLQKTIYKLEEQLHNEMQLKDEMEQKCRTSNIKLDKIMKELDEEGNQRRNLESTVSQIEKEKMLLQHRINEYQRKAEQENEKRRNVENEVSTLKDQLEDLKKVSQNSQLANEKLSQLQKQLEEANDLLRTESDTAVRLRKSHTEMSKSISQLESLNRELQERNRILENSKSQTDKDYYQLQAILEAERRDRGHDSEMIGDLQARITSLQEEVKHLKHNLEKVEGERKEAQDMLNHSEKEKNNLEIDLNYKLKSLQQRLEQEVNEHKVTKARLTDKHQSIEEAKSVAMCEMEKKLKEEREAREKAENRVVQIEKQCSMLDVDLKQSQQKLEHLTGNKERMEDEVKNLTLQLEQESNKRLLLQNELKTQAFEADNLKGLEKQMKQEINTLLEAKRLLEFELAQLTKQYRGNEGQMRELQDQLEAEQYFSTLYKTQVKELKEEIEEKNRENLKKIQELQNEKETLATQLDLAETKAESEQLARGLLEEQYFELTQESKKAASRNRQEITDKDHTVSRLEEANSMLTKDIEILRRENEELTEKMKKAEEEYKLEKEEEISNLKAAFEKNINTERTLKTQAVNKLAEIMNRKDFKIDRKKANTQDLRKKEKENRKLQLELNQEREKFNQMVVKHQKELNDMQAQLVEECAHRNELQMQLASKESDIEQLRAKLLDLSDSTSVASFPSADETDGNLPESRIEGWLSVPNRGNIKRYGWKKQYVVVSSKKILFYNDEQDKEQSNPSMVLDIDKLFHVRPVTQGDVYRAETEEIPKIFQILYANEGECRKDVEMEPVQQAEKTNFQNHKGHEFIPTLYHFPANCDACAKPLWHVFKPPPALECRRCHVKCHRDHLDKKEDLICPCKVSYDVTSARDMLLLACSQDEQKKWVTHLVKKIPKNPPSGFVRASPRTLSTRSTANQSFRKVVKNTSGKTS
Chain of ROCK2 (O75116 whole entry): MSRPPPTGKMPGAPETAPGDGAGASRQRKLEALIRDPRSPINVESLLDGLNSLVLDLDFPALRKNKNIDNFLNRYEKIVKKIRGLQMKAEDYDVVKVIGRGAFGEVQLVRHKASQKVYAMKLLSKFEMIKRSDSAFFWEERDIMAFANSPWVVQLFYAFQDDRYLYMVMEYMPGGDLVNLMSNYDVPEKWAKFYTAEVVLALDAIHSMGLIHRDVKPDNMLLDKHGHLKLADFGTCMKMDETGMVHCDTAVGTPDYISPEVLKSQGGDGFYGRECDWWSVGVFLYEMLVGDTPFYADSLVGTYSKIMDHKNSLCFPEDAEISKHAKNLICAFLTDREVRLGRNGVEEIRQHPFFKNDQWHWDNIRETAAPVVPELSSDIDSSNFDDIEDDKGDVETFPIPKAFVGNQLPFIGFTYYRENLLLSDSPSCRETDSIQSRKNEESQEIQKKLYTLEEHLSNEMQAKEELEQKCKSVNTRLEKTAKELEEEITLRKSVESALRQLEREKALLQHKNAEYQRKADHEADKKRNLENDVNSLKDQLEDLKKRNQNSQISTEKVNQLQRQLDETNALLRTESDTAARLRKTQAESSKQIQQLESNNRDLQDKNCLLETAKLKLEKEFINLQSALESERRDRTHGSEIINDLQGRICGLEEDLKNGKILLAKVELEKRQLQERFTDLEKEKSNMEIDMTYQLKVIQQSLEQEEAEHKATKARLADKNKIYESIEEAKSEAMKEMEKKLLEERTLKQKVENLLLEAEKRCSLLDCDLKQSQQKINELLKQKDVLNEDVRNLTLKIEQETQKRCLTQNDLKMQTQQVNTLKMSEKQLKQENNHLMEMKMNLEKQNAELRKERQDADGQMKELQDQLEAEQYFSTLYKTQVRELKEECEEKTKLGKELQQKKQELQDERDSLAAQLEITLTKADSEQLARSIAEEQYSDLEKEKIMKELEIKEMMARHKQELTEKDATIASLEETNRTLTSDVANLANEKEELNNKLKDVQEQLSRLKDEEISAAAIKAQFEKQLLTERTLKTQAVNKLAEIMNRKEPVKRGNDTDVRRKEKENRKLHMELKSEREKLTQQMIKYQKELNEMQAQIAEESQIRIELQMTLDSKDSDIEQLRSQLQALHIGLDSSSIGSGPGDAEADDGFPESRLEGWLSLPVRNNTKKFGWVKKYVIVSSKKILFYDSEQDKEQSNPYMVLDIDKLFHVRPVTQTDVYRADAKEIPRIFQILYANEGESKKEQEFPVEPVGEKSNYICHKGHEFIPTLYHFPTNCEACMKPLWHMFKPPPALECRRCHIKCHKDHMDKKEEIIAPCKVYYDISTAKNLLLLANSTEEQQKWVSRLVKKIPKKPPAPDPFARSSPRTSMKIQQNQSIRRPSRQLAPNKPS

| SMILES | Ki (LIMK1; Lanthascreen Eu binding assay) [nM] | Ki (LIMK2; Lanthascreen Eu binding assay) [nM] | inhibition at 1 µM (ROCK1; [11]) [%] | inhibition at 1 µM (ROCK2; [12]) [%] | inhibition at 1 µM (ROCK1; [3]) [%] | inhibition at 1 µM (ROCK2; [4]) [%] | inhibition at 25 µM [1, 8] [%] | inhibition at 25 µM [1, 9] [%] | other results |
| --- | --- | --- | --- | --- | --- | --- | --- | --- | --- |
| Cc1c[nH]c2ncnc(C3=CC(C)N(C(=O)Nc4cccc(Cl)c4)C(C)C3)c12 (stereo not shown) [Compound 58, N-(3-Chlorophenyl)-2,6-dimethyl-4-(5-methyl-7H-pyrrolo[2,3-d]pyrimidin-4-yl)-3,6-dihydropyridine-1(2H)-carboxamide] | – | – | – | – | 34 | 32 | – | – | inhibition at 25 µM [1, 5]: 91.4%; inhibition at 25 µM [1, 6]: 91.4%; inhibition at 25 µM [2, 7]: 77.3% |
| Cc1c[nH]c2ncnc(C3=CC(C)N(C(=O)Nc4cccc(Br)c4)C(C)C3)c12 (stereo not shown) [Compound 59, N-(3-Bromophenyl)-2,6-dimethyl-4-(5-methyl-7H-pyrrolo[2,3-d]pyrimidin-4-yl)-3,6-dihydropyridine-1(2H)-carboxamide] | – | – | – | – | 34 | 40 | – | – | inhibition at 25 µM [1, 5]: 93.6%; inhibition at 25 µM [1, 6]: 93.6%; inhibition at 25 µM [2, 7]: 74.7% |
| O=C(Nc1cccc(Cl)c1)N1CC=C(c2ncnc3[nH]c4c(c23)CCCC4)CC1 [Compound 114, N-(3-Chlorophenyl)-4-(6,7,8,9-tetrahydro-5H-pyrimido[4,5-b]indol-4-yl)-3,6-dihydropyridine-1(2H)-carboxamide] | 9.98 | 25.5 | – | – | 4 | 8 | 89.3 | 89.3 | inhibition at 25 µM [2, 10]: 74.7% |
| CN(C)C(=O)Nc1cccc(NC(=O)N2CC=C(c3ncnc4[nH]c5c(c34)CCC5)CC2)c1 [Compound 131, N-[3-(Dimethylcarbamoylamino)phenyl]-4-(7,9,11-triaza-tricyclo[6.4.0.02,6]dodeca-1(8),2(6),9,11-tetraen-12-yl)-3,6-dihydropyridine-1(2H)-carboxamide] | 46.9 | 8.73 | 14 | 1 | – | – | 82.9 | 82.9 | – |
| CN(C)C(=O)c1cccc(NC(=O)N2CC=C(c3ncnc4[nH]c5c(c34)CCC5)CC2)c1 [Compound 134, N-[3-(Dimethylcarbamoyl)phenyl]-4-(7,9,11-triazatricyclo [6.4.0.02,6]dodeca-1(8),2(6),9,11-tetraen-12-yl)-3,6-dihydropyridine-1(2H)-carboxamide] | 36.1 | 33.4 | -20 | -5 | – | – | 77.1 | 77.1 | – |
| COCOCc1cccc(NC(=O)N2CC=C(c3ncnc4[nH]c5c(c34)CCC5)CC2)c1 [Compound 135, N-[3-(Methoxymethoxymethyl)phenyl]-4-(7,9,11-triaza-tricyclo[6.4.0.02,6]dodeca-1(8),2(6),9,11-tetraen-12-yl)-3,6-dihydropyridine-1(2H)-carboxamide] | 22.1 | 36.2 | -14 | -3 | – | – | 85 | 85 | – |
| COc1ccc(-c2cccc(NC(=O)N3CC=C(c4ncnc5[nH]c6c(c45)CCC6)CC3)c2)cc1 [Compound 136, N-[3-(4-Methoxyphenyl)phenyl]-4-(7,9,11-triaza-tricyclo[6.4.0.02,6]dodeca-1(8),2(6),9,11-tetraen-12-yl)-3,6-dihydropyridine-1(2H)-carboxamide] | 2.75 | 21.6 | 6 | 11 | – | – | 85.5 | 85.5 | – |
| O=C(Nc1cccc(Cl)c1)N1CC=C(c2ncnc3[nH]c4c(c23)CSCC4)CC1 [Compound 155, N-(3-Chlorophenyl)-4-(5,7,8,9-tetrahydrothiopyrano [3′,4′:4,5]pyrrolo[2,3-d]pyrimidin-4-yl)-3,6-dihydropyridine-1(2H)-carboxamide] | 94.1 | 94.2 | – | – | 10 | 14 | – | 72.8 | inhibition at 25 µM [2, 10]: 57.7% |
| O=C(Nc1cccc(Br)c1)N1CC=C(c2ncnc3[nH]c4c(c23)CSCC4)CC1 [Compound 156, N-(3-Bromophenyl)-4-(5,7,8,9-tetrahydrothiopyrano [3′,4′:4,5]pyrrolo[2,3-d]pyrimidin-4-yl)-3,6-dihydropyridine-1(2H)-carboxamide] | – | – | – | – | 3 | 15 | – | – | Ki (LIMK1): 41.4 nM; Ki (LIMK2): 31.5 nM; inhibition at 25 µM [1, 5]: 68.2%; inhibition at 25 µM [2, 7]: 61.6% |
| O=C(Nc1cccc(Cl)c1)N1CC=C(c2ncnc3[nH]c4c(c23)COCC4)CC1 [Compound 158, N-(3-Chlorophenyl)-4-(5,7,8,9-tetrahydropyrano[3′,4′:4,5]pyrrolo[2,3-d]pyrimidin-4-yl)-3,6-dihydropyridine-1(2H)-carboxamide] | 65.6 | 93 | – | – | 2 | 1 | – | 65.3 | inhibition at 25 µM [2, 10]: 59.8% |
| Cc1c[nH]c2ncnc(C3=CCN(C(=O)Nc4cccc(-c5cccc(OCCCNS(C)(=O)=O)c5)c4)CC3)c12 [Compound 175, N-[3-[3-[3-(methanesulfonamido)propoxy]phenyl]phenyl]-4-(5-methyl-7H-pyrrolo[2,3-d]pyrimidin-4-yl)-3,6-dihydro-2H-pyridine-1-carboxamide] | 12 | 9.66 | 43 | 36 | – | – | – | 98.1 | – |
| Cc1c[nH]c2ncnc(C3=CCN(C(=O)Nc4cccc(OCC5CCC(F)(F)CC5)c4)CC3)c12 [Compound 191, N-(3-((4,4-difluorocyclohexyl)methoxy)phenyl)-4-(5-methyl-7H-pyrrolo[2,3-d]pyrimidin-4-yl)-3,6-dihydropyridine-1(2H)-carboxamide] | 85.5 | 217 | 72 | 57 | – | – | 87 | – | – |

Second part, led by results:

| Ki (LIMK1; Lanthascreen Eu binding assay) [nM] | Ki (LIMK2; Lanthascreen Eu binding assay) [nM] | inhibition at 1 µM (ROCK1; [11]) [%] | inhibition at 1 µM (ROCK2; [12]) [%] | SMILES | inhibition at 1 µM (ROCK1; [3]) [%] | inhibition at 1 µM (ROCK2; [4]) [%] | inhibition at 25 µM [1, 8] [%] | inhibition at 25 µM [1, 9] [%] | other results |
| --- | --- | --- | --- | --- | --- | --- | --- | --- | --- |
| 16.6 | 54.9 | 18 | 11 | CCc1cccc(NC(=O)N2CC=C(c3ncnc4[nH]c5c(c34)CCC5)CC2)c1 [Compound 129, N-(3-Ethylphenyl)-4-(7,9,11-triazatricyclo[6.4.0.02,6]dodeca-1(8),2(6),9,11-tetraen-12-yl)-3,6-dihydropyridine-1(2H)-carboxamide] | – | – | 84.5 | 84.5 | – |
| 26.7 | 87.5 | 26 | 0 | O=C(Nc1cccc(N2CCOCC2)c1)N1CC=C(c2ncnc3[nH]c4c(c23)CCC4)CC1 [Compound 130, N-(3-morpholinophenyl)-4-(7,9,11-triazatricyclo[6.4.0.02,6]dodeca-1(8),2(6),9,11-tetraen-12-yl)-3,6-dihydropyridine-1(2H)-carboxamide] | – | – | 79.2 | 79.2 | – |
| 389 | 415 | -6 | 2 | CN(C)Cc1cccc(NC(=O)N2CC=C(c3ncnc4[nH]c5c(c34)CCC5)CC2)c1 [Compound 132, N-[3-[(dimethylamino)methyl]phenyl]-4-(7,9,11-triaza-tricyclo[6.4.0.02,6]dodeca-1(8),2(6),9,11-tetraen-12-yl)-3,6-dihydropyridine-1(2H)-carboxamide] | – | – | 76.2 | 76.2 | – |
| 49.1 | 40.5 | – | – | CNC(=O)c1cccc(NC(=O)N2CC=C(c3ncnc4[nH]c5c(c34)CCC5)CC2)c1 [Compound 133, N-[3-(Methylcarbamoyl)phenyl]-4-(7,9,11-triazatricyclo [6.4.0.02,6]dodeca-1(8),2(6),9,11-tetraen-12-yl)-3,6-dihydropyridine-1(2)-carboxamide] | – | – | – | – | % inhibition (ROCK1) 1 uM (ROCK1; 1 uM): −19%; % inhibition (ROCK2) 1 uM (ROCK2; 1 uM): 1%; % inhibition Cofilin phosphorylation HeLa cells treated 2 h with 25 uM of inhibitor ([1]; HeLa cells, 2 h, 25 uM): 78.8%; % inhibition of cofilin phosphorylation in HeLa cells (treatment 2 h, at 25 μM) ([1]; Table 2, normalized to the control condition DMSO): 78.8% |
| 52.7 | 78.6 | 5 | 7 | O=C(Nc1cccc(F)c1)N1CC=C(c2ncnc3[nH]c4c(c23)CSCC4)CC1 [Compound 154, N-(3-Fluorophenyl)-4-(5,7,8,9-tetrahydrothiopyrano[3′,4′:4,5]pyrrolo[2,3-d]pyrimidin-4-yl)-3,6-dihydropyridine-1(2H)-carboxamide] | – | – | – | 66.9 | inhibition at 25 µM [2, 10]: 57.7% |
| 172 | 319 | 7 | -1 | O=C(Nc1cccc(F)c1)N1CC=C(c2ncnc3[nH]c4c(c23)COCC4)CC1 [Compound 157, N-(3-Fluorophenyl)-4-(5,7,8,9-tetrahydropyrano[3′,4′:4,5]pyrrolo[2,3-d]pyrimidin-4-yl)-3,6-dihydropyridine-1(2H)-carboxamide] | – | – | 79.5 | 79.5 | inhibition at 25 µM [2, 10]: 56.5% |

Source: US20230312576A1, “4-(7H-PYRROLO[2,3-D]PYRIMIDIN-4-YL)-3,6-DIHYDROPYRIDINE-1-(2H)-CARBOXAMIDE DERIVATIVES AS LIMK AND/OR ROCK KINASES INHIBITORS FOR USE IN THE TREATMENT OF CANCER” (CENTRE NATIONAL DE LA RECHERCHE SCIENTIFIQUE, priority 2020, published 2023)
